# Measured values published in patent US12377104B1, “Methods for treating a fatty liver disease” (Madrigal Pharmaceuticals, Inc., priority 2024, dated 2025).
# Key:
# [1] = system: noncirrhotic NASH with stage 2 or stage 3 fibrosis; assay: Trial 1 Month 12 histopathology efficacy analysis (F2 and F3); format: in vivo, human
# Method: Patients were on stable doses of medications for diabetes, dyslipidemia, and hypertension. […] Two pathologists, Pathologist A and Pathologist B, independently read the liver biopsies for each patient. […] Liver fibrosis was evaluated on the NASH Clinical Research Network (CRN) fibrosis score as 0 to 4. […] No worsening of steatohepatitis was defined as no increase in NAS for ballooning, inflammation, or steatosis. […] Estimated using the Mantel-Haenszel method stratified by baseline type 2 diabetes status (presence or absence) and fibrosis stage (F2 or F3). 95% stratified Newcombe confidence intervals (CIs) are provided. Patients with missing liver biopsy at Month 12 were considered a non-responder.
# NASH patients = assay: Exposure-response: probability of NASH resolution or fibrosis response by Cave,ss; format: in vivo, human
# Method: Various body weight cutoffs for dosing were evaluated.
# Study median body weight was 100 kg. […] Study median BMI was 35 kg/m^2.
# [2] = MAESTRO-NASH: metabolic factors (heart rate, body weight, blood pressure) at week 52; format: in vivo, human; conditions: for Body weight, LS mean % CFB / Body weight, LS mean % CFB difference from PBO / DBP, LS mean % CFB / DBP, LS mean % CFB difference from PBO / Glucose, LS mean % CFB / Glucose, LS mean % CFB difference from PBO / HOMA-IR, LS mean % CFB / HOMA-IR, LS mean % CFB difference from PBO / HbA1c, LS mean % CFB / HbA1c, LS mean % CFB difference from PBO / Heart rate (electrocardiogram), LS mean % CFB / Heart rate (electrocardiogram), LS mean % CFB difference from PBO / Insulin, LS mean % CFB / Insulin, LS mean % CFB difference from PBO / SBP, LS mean % CFB / SBP, LS mean % CFB difference from PBO: week 52
# [3] = system: NASH patients with fibrosis stage F1A or F1C; assay: MAESTRO-NASH: exploratory F1 (F1A/F1C) population, endpoints and safety
smiles,measurement,setting,value
"CC(C)c1cc(Oc2c(Cl)cc(-n3nc(C#N)c(=O)[nH]c3=O)cc2Cl)n[nH]c1=O [Resmetirom, 2-(3,5-dichloro-4-((5-isopropyl-6-oxo-1,6-dihydropyridazin-3-yl)oxy)phenyl)-3,5-dioxo-2,3,4,5-tetrahydro-1,2,4-triazine-6-carbonitrile]","Improvement in liver fibrosis, no worsening of steatohepatitis: response rate, Pathologist A",[1]; 80 mg,23%
same,"Improvement in liver fibrosis, no worsening of steatohepatitis: response rate, Pathologist B",[1]; 80 mg,23%
same,"Improvement in liver fibrosis: difference in response rate vs. placebo (95% CI), Pathologist A",[1]; 80 mg,"8 (2, 14)"
same,"Improvement in liver fibrosis: difference in response rate vs. placebo (95% CI), Pathologist B",[1]; 80 mg,"11 (5, 17)"
same,"Resolution of steatohepatitis, no worsening of fibrosis: response rate, Pathologist A",[1]; 80 mg,27%
same,"Resolution of steatohepatitis, no worsening of fibrosis: response rate, Pathologist B",[1]; 80 mg,26%
same,"Resolution of steatohepatitis: difference in response rate vs. placebo (95% CI), Pathologist A",[1]; 80 mg,"14 (8, 20)"
same,"Resolution of steatohepatitis: difference in response rate vs. placebo (95% CI), Pathologist B",[1]; 80 mg,"17 (11, 23)"
same,"Improvement in liver fibrosis, no worsening of steatohepatitis: response rate, Pathologist A",[1]; 100 mg,28%
same,"Improvement in liver fibrosis, no worsening of steatohepatitis: response rate, Pathologist B",[1]; 100 mg,24%
same,"Improvement in liver fibrosis: difference in response rate vs. placebo (95% CI), Pathologist A",[1]; 100 mg,"13 (7, 20)"
same,"Improvement in liver fibrosis: difference in response rate vs. placebo (95% CI), Pathologist B",[1]; 100 mg,"11 (5, 17)"
same,"Resolution of steatohepatitis, no worsening of fibrosis: response rate, Pathologist A",[1]; 100 mg,36%
same,"Resolution of steatohepatitis, no worsening of fibrosis: response rate, Pathologist B",[1]; 100 mg,24%
same,"Resolution of steatohepatitis: difference in response rate vs. placebo (95% CI), Pathologist A",[1]; 100 mg,"23 (16, 30)"
same,"Resolution of steatohepatitis: difference in response rate vs. placebo (95% CI), Pathologist B",[1]; 100 mg,"15 (9, 21)"
same,Estimated Probability of response (NASH resolution or fibrosis response),"NASH patients; Cave,ss Q1: [20-155)",33.6%
same,Observed Probability of response (NASH resolution or fibrosis response),"NASH patients; Cave,ss Q1: [20-155)",45.5%
same,Estimated Probability of response (NASH resolution or fibrosis response),"NASH patients; Cave,ss Q2: [155-219)",37.3%
same,Observed Probability of response (NASH resolution or fibrosis response),"NASH patients; Cave,ss Q2: [155-219)",44.0%
same,Estimated Probability of response (NASH resolution or fibrosis response),"NASH patients; Cave,ss Q3: [219-321)",41.9%
same,Observed Probability of response (NASH resolution or fibrosis response),"NASH patients; Cave,ss Q3: [219-321)",41.8%
same,Estimated Probability of response (NASH resolution or fibrosis response),"NASH patients; Cave,ss Q4: [321-1326]",56.2%
same,Observed Probability of response (NASH resolution or fibrosis response),"NASH patients; Cave,ss Q4: [321-1326]",55.0%
same,"Mean Cave,ss",NASH patients; Q1: [20-155),120 ng/mL
same,"Mean Cave,ss",NASH patients; Q2: [155-219),186 ng/mL
same,"Mean Cave,ss",NASH patients; Q3: [219-321),263 ng/mL
same,"Mean Cave,ss",NASH patients; Q4: [321-1326],495 ng/mL
same,"Body weight, LS mean % CFB",[2]; 80 mg,−1.2%
same,"Body weight, LS mean % CFB difference from PBO",[2]; 80 mg,0.35%
same,"DBP, LS mean % CFB",[2]; 80 mg,−1.6%
same,"DBP, LS mean % CFB difference from PBO",[2]; 80 mg,−1.5%
same,"Glucose, LS mean % CFB",[2]; 80 mg,0.72%
same,"Glucose, LS mean % CFB difference from PBO",[2]; 80 mg,2.9%
same,"HOMA-IR, LS mean % CFB",[2]; 80 mg,9.1%
same,"HOMA-IR, LS mean % CFB difference from PBO",[2]; 80 mg,−5.3%
same,"HbA1c, LS mean % CFB",[2]; 80 mg,1.7%
same,"HbA1c, LS mean % CFB difference from PBO",[2]; 80 mg,0.19%
same,"Heart rate (electrocardiogram), LS mean % CFB",[2]; 80 mg,−1.7%
same,"Heart rate (electrocardiogram), LS mean % CFB difference from PBO",[2]; 80 mg,−1.5%
same,"Insulin, LS mean % CFB",[2]; 80 mg,2.8%
same,"Insulin, LS mean % CFB difference from PBO",[2]; 80 mg,2.3%
same,"SBP, LS mean % CFB",[2]; 80 mg,−1.9%
same,"SBP, LS mean % CFB difference from PBO",[2]; 80 mg,2.7%
same,"Body weight, LS mean % CFB",[2]; 100 mg,−1.8%
same,"Body weight, LS mean % CFB difference from PBO",[2]; 100 mg,−0.88%
same,"DBP, LS mean % CFB",[2]; 100 mg,−2.0%
same,"DBP, LS mean % CFB difference from PBO",[2]; 100 mg,−1.9%
same,"Glucose, LS mean % CFB",[2]; 100 mg,−3.4%
same,"Glucose, LS mean % CFB difference from PBO",[2]; 100 mg,5.6%
same,"HOMA-IR, LS mean % CFB",[2]; 100 mg,3.4%
same,"HOMA-IR, LS mean % CFB difference from PBO",[2]; 100 mg,11.0%
same,"HbA1c, LS mean % CFB",[2]; 100 mg,1.5%
same,"HbA1c, LS mean % CFB difference from PBO",[2]; 100 mg,0.05%
same,"Heart rate (electrocardiogram), LS mean % CFB",[2]; 100 mg,2.6%
same,"Heart rate (electrocardiogram), LS mean % CFB difference from PBO",[2]; 100 mg,−2.4%
same,"Insulin, LS mean % CFB",[2]; 100 mg,3.3%
same,"Insulin, LS mean % CFB difference from PBO",[2]; 100 mg,1.8%
same,"SBP, LS mean % CFB",[2]; 100 mg,2.1%
same,"SBP, LS mean % CFB difference from PBO",[2]; 100 mg,2.9%
same,blood pressure,[2]; in vivo,slightly reduced
same,effect on heart rate or body weight,[2]; in vivo,no effect on heart rate or body weight
same,"Any Serious TEAE, %",[3]; 80 mg,(20.0) %
same,"Any TEAEs leading to Study Discontinuation, %",[3]; 80 mg,(13.3) %
same,"TEAE Grade 1, %",[3]; 80 mg,(20.0) %
same,"TEAE Grade 2, %",[3]; 80 mg,(53.3) %
same,"TEAE Grade 3, %",[3]; 80 mg,(16.7) %
same,"Any TEAE, %",[3]; 80 mg (N = 30),(93.3) %
same,Fibrosis improvement endpoint,[3]; 80 mg (N = 30),21.7%
same,Nash resolution endpoint,[3]; 80 mg (N = 30),38.3%
same,"Any Serious TEAE, %",[3]; 100 mg,(23.1) %
same,"Any TEAEs leading to Study Discontinuation, %",[3]; 100 mg,(11.5) %
same,"TEAE Grade 1, %",[3]; 100 mg,(19.2) %
same,"TEAE Grade 2, %",[3]; 100 mg,(46.2) %
same,"TEAE Grade 3, %",[3]; 100 mg,(15.4) %
same,"Any TEAE, %",[3]; 100 mg (N = 26),(80.8) %
same,Fibrosis improvement endpoint,[3]; 100 mg (N = 26),15.4%
same,Nash resolution endpoint,[3]; 100 mg (N = 26),25.0%
same,"Abdominal pain upper, %","[3]; AEs >5%, 80 mg",(6.7) %
same,"Abdominal pain, %","[3]; AEs >5%, 80 mg",(3.3) %
same,"Arthralgia, %","[3]; AEs >5%, 80 mg",(20.0) %
same,"Back pain, %","[3]; AEs >5%, 80 mg",(13.3) %
same,"Constipation, %","[3]; AEs >5%, 80 mg",(13.3) %
same,"Diarrhea, %","[3]; AEs >5%, 80 mg",(26.7) %
same,"Dizziness, %","[3]; AEs >5%, 80 mg",(6.7) %
same,"Fatigue, %","[3]; AEs >5%, 80 mg",(10.0) %
same,"Headache, %","[3]; AEs >5%, 80 mg",(13.3) %
same,"Hypertension (AE), %","[3]; AEs >5%, 80 mg",(3.3) %
same,"Nausea, %","[3]; AEs >5%, 80 mg",(16.7) %
same,"Pruritus, %","[3]; AEs >5%, 80 mg",(6.7) %
same,"Pyrexia, %","[3]; AEs >5%, 80 mg",(6.7) %
same,"Rash, %","[3]; AEs >5%, 80 mg",(10.0) %
same,"Type 2 diabetes mellitus (AE), %","[3]; AEs >5%, 80 mg",(3.3) %
same,"Urinary tract infection, %","[3]; AEs >5%, 80 mg",(6.7) %
same,"Vomiting, %","[3]; AEs >5%, 80 mg",(3.3) %
same,"Weight decreased, %","[3]; AEs >5%, 80 mg",(3.3) %
same,"Abdominal pain upper, %","[3]; AEs >5%, 100 mg",(3.8) %
same,"Abdominal pain, %","[3]; AEs >5%, 100 mg",(7.7) %
same,"Arthralgia, %","[3]; AEs >5%, 100 mg",(7.7) %
same,"Back pain, %","[3]; AEs >5%, 100 mg",(11.5) %
same,"Constipation, %","[3]; AEs >5%, 100 mg",(7.7) %
same,"Cough, %","[3]; AEs >5%, 100 mg",(3.8) %
same,"Diarrhea, %","[3]; AEs >5%, 100 mg",(19.2) %
same,"Dizziness, %","[3]; AEs >5%, 100 mg",(7.7) %
same,"Fatigue, %","[3]; AEs >5%, 100 mg",(7.7) %
same,"Nausea, %","[3]; AEs >5%, 100 mg",(7.7) %
same,"Osteopenia, %","[3]; AEs >5%, 100 mg",(7.7) %
same,"Pruritus, %","[3]; AEs >5%, 100 mg",(15.4) %
same,"Rash, %","[3]; AEs >5%, 100 mg",(7.7) %
same,"Type 2 diabetes mellitus (AE), %","[3]; AEs >5%, 100 mg",(3.8) %
same,"Urinary tract infection, %","[3]; AEs >5%, 100 mg",(15.4) %
same,"Vomiting, %","[3]; AEs >5%, 100 mg",(11.5) %
same,"Weight decreased, %","[3]; AEs >5%, 100 mg",(11.5) %
